In patent US9321756B2, “Azole compounds as PIM inhibitors” (priority 2011, dated 2016):
pIC50: −log10 of the molar value. Read-outs that look alike come from different tables or passages of the source.

Assays:
[1] = test system: Pim-2 stably transfected U2OS human osteogenic sarcoma line; test: Pim cell assay U2OS (phospho-BAD normalized against total BAD), Pim-2 transfected; format: cell-based; conditions: Homo sapiens, read-out: U2OS Pim2_Cell_IC50
[2] = target: full length recombinant Pim-1 (Homo sapiens (Human), UniProt P11309); test: Pim enzyme assay (HTRF, phosphorylation of biotinylated-BAD (S112) peptide), Pim-1; format: biochemical
[3] = test system: Pim-1 stably transfected U2OS human osteogenic sarcoma line; test: Pim cell assay U2OS (phospho-BAD normalized against total BAD), Pim-1 transfected; format: cell-based; conditions: Homo sapiens, U2OS
[4] = target: full length recombinant Pim-2 (Homo sapiens (Human), UniProt Q9P1W9); test: Pim enzyme assay (HTRF, phosphorylation of biotinylated-BAD (S112) peptide), Pim-2; format: biochemical; conditions: read-out: Pim2_IC50
[5] = target: full length recombinant Pim-3 (Homo sapiens (Human), UniProt Q86V86); test: Pim enzyme assay (HTRF, phosphorylation of biotinylated-BAD (S112) peptide), Pim-3; format: biochemical; conditions: read-out: Pim3 IC50
Outline: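 Full-length recombinant Pim-3 phosphorylated biotinylated BAD (S112) peptide in 60 mM Hepes pH 7.0, 0.05% BSA, 2 mM DTT for 1 h 30 min at 22 °C. After EDTA stop, HTRF was read with Eu anti-phospho-BAD and streptavidin-APC. IC50 came from 4-parameter logistic fit of percent-of-control values.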

[6] = Pim-1 enzyme assay, read-out: Pim_1_IC50
[7] = read-out: U2OS Pim1_Cell_IC50, U2OS cells, Pim-1 transfected

Chain of full length recombinant Pim-2 (Q9P1W9 whole entry): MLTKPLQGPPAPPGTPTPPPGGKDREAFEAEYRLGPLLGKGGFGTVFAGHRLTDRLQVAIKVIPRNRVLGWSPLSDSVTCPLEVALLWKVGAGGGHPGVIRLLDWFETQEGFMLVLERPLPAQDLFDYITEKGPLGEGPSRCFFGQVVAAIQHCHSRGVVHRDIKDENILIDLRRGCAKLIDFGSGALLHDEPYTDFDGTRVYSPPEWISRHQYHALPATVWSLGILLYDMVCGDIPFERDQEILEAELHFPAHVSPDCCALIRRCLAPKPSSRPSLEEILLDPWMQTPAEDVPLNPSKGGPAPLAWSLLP
Chain of full length recombinant Pim-1 (P11309 whole entry): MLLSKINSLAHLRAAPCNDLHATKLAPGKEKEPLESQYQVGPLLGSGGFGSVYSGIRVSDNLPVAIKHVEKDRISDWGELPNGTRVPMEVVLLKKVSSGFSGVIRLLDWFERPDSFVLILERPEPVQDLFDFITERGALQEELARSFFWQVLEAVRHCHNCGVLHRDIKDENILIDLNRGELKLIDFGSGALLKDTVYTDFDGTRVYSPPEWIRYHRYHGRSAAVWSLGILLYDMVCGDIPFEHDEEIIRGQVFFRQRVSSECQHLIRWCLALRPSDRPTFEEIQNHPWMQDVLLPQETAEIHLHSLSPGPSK

| SMILES | pIC50 [2, 6] | pIC50 ([4]; Pim-2 enzyme assay) | pIC50 ([5]; Pim-3 enzyme assay) | pIC50 [2] | pIC50 ([1]; U2OS cells, Pim-2 transfected) | pIC50 [3, 7] | pIC50 ([3]; read-out: U2OS Pim1_Cell_IC50) | pIC50 ([1]; U2OS) | pIC50 ([2]; read-out: Pim_1_IC50) | pIC50 [4] | pIC50 [5] |
| --- | --- | --- | --- | --- | --- | --- | --- | --- | --- | --- | --- |
| Nc1nnc(-c2ccc3[nH]cc(-c4nccc(C5CC5)n4)c3c2)o1 [Example 94, 5-(3-(4-cyclopropyl-2-pyrimidinyl)-1H-indol-5-yl)-1,3,4-oxadiazol-2-amine] | 8.28 | 9.01 | 9.00 |  | 6.55 | 7.12 |  |  |  |  |  |
| Cn1cc(-c2cncc(-c3c[nH]c4ccc(-c5nnc(N)o5)cc34)n2)cn1 [Example 121, 5-(3-(6-(1-methyl-1H-pyrazol-4-yl)-2-pyrazinyl)-1H-indol-5-yl)-1,3,4-oxadiazol-2-amine] | 7.72 | 7.46 | 8.26 |  | < 4.50 |  | 5.50 |  |  |  |  |
| Cc1nnc(-c2ccc3[nH]cc(-c4cccc(OC(C)C)n4)c3c2)o1 [Example 42, 2-(3-(6-isopropoxypyridin-2-yl)-1H-indol-5-yl)-5-methyl-1,3,4-oxadiazole] | 7.67 | 7.41 | 8.00 |  | 4.81 |  | 6.56 |  |  |  |  |
| Nc1nnc(-c2ccc3[nH]cc(-c4ccc5nccnc5c4)c3c2)s1 [Example 151, 5-(3-(6-quinoxalinyl)-1H-indol-5-yl)-1,3,4-thiadiazol-2-amine] | 6.99 | 6.84 | 7.76 |  | < 4.50 |  | 6.03 |  |  |  |  |
| Nc1nnc(-c2ccc3[nH]cc(-c4cccc(N5CCCC5=O)n4)c3c2)s1 [Example 166, 1-(6-(5-(5-amino-1,3,4-thiadiazol-2-yl)-1H-indol-3-yl)-2-pyridinyl)-2-pyrrolidinone] | 7.74 | 7.42 | 8.27 |  | < 4.50 |  | < 4.50 |  |  |  |  |
| Nc1nnc(-c2ccc3[nH]cc(-c4nccc(-c5ccccc5Cl)n4)c3c2)o1 [Example 118, 5-(3-(4-(2-chlorophenyl)-2-pyrimidinyl)-1H-indol-5-yl)-1,3,4-oxadiazol-2-amine] | 7.78 | 7.72 | 7.80 |  | < 4.50 |  | 6.66 |  |  |  |  |
| CC(C)Nc1ccnc(-c2c[nH]c3ccc(-c4nnc(N)o4)cc23)n1 [Example 103, 2-(5-(5-amino-1,3,4-oxadiazol-2-yl)-1H-indol-3-yl)-N-(1-methylethyl)-4-pyrimidinamine] | 8.16 | 8.65 | 8.78 |  | 5.91 |  | 6.13 |  |  |  |  |
| Nc1nnc(-c2ccc3[nH]cc(-c4nccc(Oc5ccccc5)n4)c3c2)o1 [Example 106, 5-(3-(4-phenoxy-2-pyrimidinyl)-1H-indol-5-yl)-1,3,4-oxadiazol-2-amine] | 7.82 | 8.19 | 8.24 |  | 5.93 |  | 6.81 |  |  |  |  |
| CC(C)Oc1ccc(F)c(-c2c[nH]c3ccc(-c4nnc(N)o4)cc23)c1 [Example 83, 5-(3-(2-fluoro-5-(1-methylethoxy)phenyl)-1H-indol-5-yl)-1,3,4-oxadiazol-2-amine] | 7.23 | 6.71 | 7.44 |  | 4.73 | 6.14 |  |  |  |  |  |
| CC1CCCCN1c1ccnc(-c2c[nH]c3ccc(-c4nnc(N)o4)cc23)n1 (stereo not drawn) [Example 3, 5-(3-(4-(2-methylpiperidin-1-yl)pyrimidin-2-yl)-1H-indol-5-yl)-1,3,4-oxadiazol-2-amine] | 8.23 | 8.66 | 9.01 |  | 6.63 |  | 7.26 |  |  |  |  |
| CN1CCN(c2cccc(-c3c[nH]c4ccc(-c5nnc(N)s5)cc34)n2)CC1 [Example 13, 5-(3-(6-(4-methylpiperazin-1-yl)pyridin-2-yl)-1H-indol-5-yl)-1,3,4-thiadiazol-2-amine] |  |  |  |  |  | 6.70 |  | 5.52 | 8.69 | 7.96 | 9.20 |
| Nc1nnc(-c2ccc3[nH]cc(-c4cncc(-c5ccccc5F)n4)c3c2)o1 [Example 116, 5-(3-(6-(2-fluorophenyl)-2-pyrazinyl)-1H-indol-5-yl)-1,3,4-oxadiazol-2-amine] | 7.82 | 7.71 | 8.11 |  | < 4.50 | 6.65 |  |  |  |  |  |

Further lines, with some results ahead:

| pIC50 [2, 6] | pIC50 ([4]; Pim-2 enzyme assay) | pIC50 ([5]; Pim-3 enzyme assay) | pIC50 [2] | SMILES | pIC50 ([1]; U2OS cells, Pim-2 transfected) | pIC50 [3, 7] | pIC50 ([3]; read-out: U2OS Pim1_Cell_IC50) | pIC50 ([1]; U2OS) | pIC50 ([2]; read-out: Pim_1_IC50) | pIC50 [4] | pIC50 [5] |
| --- | --- | --- | --- | --- | --- | --- | --- | --- | --- | --- | --- |
| 7.42 | 7.52 | 7.83 |  | COc1cncc(-c2c[nH]c3ccc(-c4nnc(N)s4)cc23)n1 [Example 212, 5-(3-(6-methoxy-2-pyrazinyl)-1H-indol-5-yl)-1,3,4-thiadiazol-2-amine] | < 4.50 |  | 6.75 |  |  |  |  |
| 8.72 | 8.19 | 8.79 |  | Nc1nnc(-c2ccc3[nH]cc(-c4cncc(N5CCC(F)(F)C5)n4)c3c2)o1 [Example 88, 5-(3-(6-(3,3-difluoro-1-pyrrolidinyl)-2-pyrazinyl)-1H-indol-5-yl)-1,3,4-oxadiazol-2-amine] | 6.33 |  | 7.39 |  |  |  |  |
|  | 8.01 | 8.77 | 8.75 | CC1CCCCN1c1cncc(-c2c[nH]c3ccc(-c4nnc(N)s4)cc23)n1 (stereo not drawn) [Example 153, 5-(3-(6-(2-methyl-1-piperidinyl)-2-pyrazinyl)-1H-indol-5-yl)-1,3,4-thiadiazol-2-amine] | 5.78 |  | 7.28 |  |  |  |  |
| 8.26 | 8.32 | 8.75 |  | C[C@H]1CCCN(c2ccnc(-c3c[nH]c4ccc(-c5nnc(N)o5)cc34)n2)C1 (stereo in doubt) [Example 105, 5-(3-(4-(3-methyl-1-piperidinyl)-2-pyrimidinyl)-1H-indol-5-yl)-1,3,4-oxadiazol-2-amine] | 6.04 |  | 6.98 |  |  |  |  |
| 7.09 | 7.31 | 7.57 |  | Nc1nnc(-c2ccc3[nH]cc(-c4cccc(-n5cccn5)n4)c3c2)s1 [Example 180, 5-(3-(6-(1H-pyrazol-1-yl)-2-pyridinyl)-1H-indol-5-yl)-1,3,4-thiadiazol-2-amine] | 5.26 |  | 6.03 |  |  |  |  |
| 7.59 | 7.04 | 8.00 |  | CNc1nnc(-c2ccc3[nH]cc(-c4cccc(N5CCOCC5)n4)c3c2)s1 [Example 214, N-methyl-5-(3-(6-(4-morpholinyl)-2-pyridinyl)-1H-indol-5-yl)-1,3,4-thiadiazol-2-amine] | 4.82 | 6.23 |  |  |  |  |  |
| 7.71 | 8.06 | 8.11 |  | Nc1nnc(-c2ccc3[nH]cc(-c4nccc(N5CCOCC5)n4)c3c2)s1 [Example 11, 5-(3-(4-morpholinopyrimidin-2-yl)-1H-indol-5-yl)-1,3,4-thiadiazol-2-amine] | 5.66 |  | 6.04 |  |  |  |  |
| 8.71 | 8.97 | 8.66 |  | C[C@H]1COCCN1c1ccnc(-c2c[nH]c3ccc(-c4nnc(N)o4)cc23)n1 [Example 91, 5-(3-(4-((3S)-3-methyl-4-morpholinyl)-2-pyrimidinyl)-1H-indol-5-yl)-1,3,4-oxadiazol-2-amine] | 5.98 |  | 6.66 |  |  |  |  |
| 7.90 | 7.31 | 8.07 |  | CC1CCN(c2cncc(-c3c[nH]c4ccc(-c5nnc(N)s5)cc34)n2)CC1 [Example 162, 5-(3-(6-(4-methyl-1-piperidinyl)-2-pyrazinyl)-1H-indol-5-yl)-1,3,4-thiadiazol-2-amine] | 5.25 |  | 6.67 |  |  |  |  |
| 8.42 | 8.16 | 8.60 |  | CN1CCN(c2cccc(-c3c[nH]c4ccc(-c5nnc(N)o5)cc34)n2)CC1 [Example 75, 5-(3-(6-(4-methyl-1-piperazinyl)-2-pyridinyl)-1H-indol-5-yl)-1,3,4-oxadiazol-2-amine] | 5.63 |  | 6.76 |  |  |  |  |
| 8.23 | 7.68 | 8.24 |  | Nc1nnc(-c2ccc3[nH]cc(-c4cccc(N5CCOCC5)n4)c3c2)o1 [Example 6, 5-(3-(6-morpholinopyridin-2-yl)-1H-indol-5-yl)-1,3,4-oxadiazol-2-amine] | 5.68 | 7.21 |  |  |  |  |  |
| 8.68 | 8.32 | 8.74 |  | Nc1nnc(-c2ccc3[nH]cc(-c4cncc(N5CCCCC5)n4)c3c2)o1 [Example 89, 5-(3-(6-(1-piperidinyl)-2-pyrazinyl)-1H-indol-5-yl)-1,3,4-oxadiazol-2-amine] | 6.16 | 7.22 |  |  |  |  |  |
| 7.54 | 7.09 | 8.17 |  | CNc1nnc(-c2ccc3[nH]cc(-c4cccc(N5CCCC5=O)n4)c3c2)s1 [Example 229, 1-(6-(5-(5-(methylamino)-1,3,4-thiadiazol-2-yl)-1H-indol-3-yl)-2-pyridinyl)-2-pyrrolidinone] | < 4.50 |  | 6.51 |  |  |  |  |
| 6.64 | 6.11 | 7.20 |  | CNc1nnc(-c2ccc3[nH]cc(-c4ccccc4F)c3c2)s1 [Example 235, 5-(3-(2-fluorophenyl)-1H-indol-5-yl)-N-methyl-1,3,4-thiadiazol-2-amine] | < 4.50 |  | 5.27 |  |  |  |  |
| 8.38 | 7.67 | 8.15 |  | c1cc2[nH]cc(-c3cncc(C4CC4)n3)c2cc1-c1nnc(N2CCNCC2)o1 [Example 246, 3-(6-cyclopropyl-2-pyrazinyl)-5-(5-(1-piperazinyl)-1,3,4-oxadiazol-2-yl)-1H-indole] | < 4.50 |  | 6.35 |  |  |  |  |
